Laboratory results reported in article PMC7591811 (Journal of Pharmaceutical Analysis, 2020).

What was measured:
[1] = target: Melatonin MT1 (Homo sapiens, UniProt P48039); assay: Lead profiling screen; format: binding
[2] = target: T1, Adenosine A3 (Homo sapiens, UniProt P0DMS8); assay: Lead profiling screen; format: binding; settings: for inhibition at 10 µM: Adenosine A3, Human
T1 sequence (P0DMS8 1-318): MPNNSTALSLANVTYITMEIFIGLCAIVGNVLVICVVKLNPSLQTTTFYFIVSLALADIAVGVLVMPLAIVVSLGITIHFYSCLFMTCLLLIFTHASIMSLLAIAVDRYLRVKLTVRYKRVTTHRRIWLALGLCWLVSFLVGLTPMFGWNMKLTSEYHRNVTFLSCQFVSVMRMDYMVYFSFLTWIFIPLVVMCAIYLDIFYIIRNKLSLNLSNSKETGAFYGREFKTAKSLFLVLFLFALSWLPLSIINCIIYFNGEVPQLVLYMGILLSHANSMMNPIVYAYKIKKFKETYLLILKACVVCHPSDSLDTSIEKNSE

[3] = system: BZD (central); assay: Lead profiling screen; format: binding; settings: 10 μM, Rat
[4] = target: BZD (peripheral) (Rattus norvegicus, UniProt P16257); assay: Lead profiling screen; format: binding; settings: for inhibition at 10 µM: BZD (peripheral) / TSPO, Rat
BZD (peripheral), sequence (P16257 whole entry): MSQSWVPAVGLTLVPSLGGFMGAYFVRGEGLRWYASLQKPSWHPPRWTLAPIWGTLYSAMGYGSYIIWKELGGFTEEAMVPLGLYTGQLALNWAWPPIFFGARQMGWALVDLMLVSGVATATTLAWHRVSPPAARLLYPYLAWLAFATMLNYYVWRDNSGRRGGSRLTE

[5] = target: T2, Melatonin MT2 (Homo sapiens, UniProt P49286); assay: Lead profiling screen; format: binding; settings: for inhibition at 10 µM: Melatonin MT2, Human
T2 sequence (P49286 1-362): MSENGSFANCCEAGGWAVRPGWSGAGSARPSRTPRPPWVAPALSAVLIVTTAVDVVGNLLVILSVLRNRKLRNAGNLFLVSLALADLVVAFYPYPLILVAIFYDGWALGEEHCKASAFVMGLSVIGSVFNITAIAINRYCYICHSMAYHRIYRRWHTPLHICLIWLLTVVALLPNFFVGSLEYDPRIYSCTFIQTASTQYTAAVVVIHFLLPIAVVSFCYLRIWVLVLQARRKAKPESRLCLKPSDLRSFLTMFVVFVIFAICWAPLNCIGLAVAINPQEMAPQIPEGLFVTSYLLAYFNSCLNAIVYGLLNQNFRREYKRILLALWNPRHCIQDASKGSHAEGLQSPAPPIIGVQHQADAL

[6] = target: T3, AR (Homo sapiens, UniProt P10275); assay: Lead profiling screen; format: binding; settings: Rat
T3 sequence (P10275 1-920): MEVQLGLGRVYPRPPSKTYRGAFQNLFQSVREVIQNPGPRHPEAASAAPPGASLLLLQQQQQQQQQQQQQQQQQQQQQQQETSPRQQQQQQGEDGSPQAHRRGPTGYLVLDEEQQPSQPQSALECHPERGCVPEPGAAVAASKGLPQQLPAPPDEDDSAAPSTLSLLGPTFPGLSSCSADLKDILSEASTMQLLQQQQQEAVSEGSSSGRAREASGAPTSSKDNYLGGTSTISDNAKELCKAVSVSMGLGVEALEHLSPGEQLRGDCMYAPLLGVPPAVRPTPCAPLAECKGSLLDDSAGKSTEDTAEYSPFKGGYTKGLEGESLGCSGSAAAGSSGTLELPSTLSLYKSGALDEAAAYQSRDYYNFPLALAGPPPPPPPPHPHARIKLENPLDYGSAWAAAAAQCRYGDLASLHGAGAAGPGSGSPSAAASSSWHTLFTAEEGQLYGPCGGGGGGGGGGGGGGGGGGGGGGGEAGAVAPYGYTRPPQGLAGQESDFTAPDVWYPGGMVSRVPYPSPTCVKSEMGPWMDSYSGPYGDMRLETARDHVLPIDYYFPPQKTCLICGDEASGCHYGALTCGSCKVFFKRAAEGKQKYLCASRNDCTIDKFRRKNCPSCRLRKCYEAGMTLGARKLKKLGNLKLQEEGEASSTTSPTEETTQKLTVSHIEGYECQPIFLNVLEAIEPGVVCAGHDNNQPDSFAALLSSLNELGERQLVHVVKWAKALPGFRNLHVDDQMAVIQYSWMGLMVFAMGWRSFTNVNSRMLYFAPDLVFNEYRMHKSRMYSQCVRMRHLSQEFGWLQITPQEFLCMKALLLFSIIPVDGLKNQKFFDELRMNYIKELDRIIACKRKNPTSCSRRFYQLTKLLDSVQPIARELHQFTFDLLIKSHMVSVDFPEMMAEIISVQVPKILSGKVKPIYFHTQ

[7] = system: Cl^- channel (GABA gated); assay: Lead profiling screen; format: binding; settings: 10 μM, Rat
[8] = target: Serotonin (5-Hydroxytryptamine) 5-HT2B (Homo sapiens, UniProt P41595); assay: Lead profiling screen; format: binding; settings: for inhibition at 10 µM: 5-HT2B, Human
Serotonin (5-Hydroxytryptamine) 5-HT2B, sequence (P41595 whole entry): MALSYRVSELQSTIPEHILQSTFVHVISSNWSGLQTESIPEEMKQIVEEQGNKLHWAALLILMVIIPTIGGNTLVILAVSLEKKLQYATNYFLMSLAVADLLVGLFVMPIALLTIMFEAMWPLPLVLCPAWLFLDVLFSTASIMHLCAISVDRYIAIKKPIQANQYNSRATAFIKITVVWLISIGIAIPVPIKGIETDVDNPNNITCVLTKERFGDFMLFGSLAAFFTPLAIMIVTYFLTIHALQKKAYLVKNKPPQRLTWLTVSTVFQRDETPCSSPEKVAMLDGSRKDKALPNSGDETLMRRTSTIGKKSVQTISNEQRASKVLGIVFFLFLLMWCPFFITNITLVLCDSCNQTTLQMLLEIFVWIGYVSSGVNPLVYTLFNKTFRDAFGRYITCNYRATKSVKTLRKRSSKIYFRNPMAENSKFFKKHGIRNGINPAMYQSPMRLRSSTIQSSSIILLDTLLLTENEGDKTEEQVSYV

[9] = target: T4, UT (Homo sapiens, UniProt Q9UKP6); assay: Lead profiling screen; format: binding; settings: for inhibition at 10 µM: UT, Human
T4 sequence (Q9UKP6 1-389): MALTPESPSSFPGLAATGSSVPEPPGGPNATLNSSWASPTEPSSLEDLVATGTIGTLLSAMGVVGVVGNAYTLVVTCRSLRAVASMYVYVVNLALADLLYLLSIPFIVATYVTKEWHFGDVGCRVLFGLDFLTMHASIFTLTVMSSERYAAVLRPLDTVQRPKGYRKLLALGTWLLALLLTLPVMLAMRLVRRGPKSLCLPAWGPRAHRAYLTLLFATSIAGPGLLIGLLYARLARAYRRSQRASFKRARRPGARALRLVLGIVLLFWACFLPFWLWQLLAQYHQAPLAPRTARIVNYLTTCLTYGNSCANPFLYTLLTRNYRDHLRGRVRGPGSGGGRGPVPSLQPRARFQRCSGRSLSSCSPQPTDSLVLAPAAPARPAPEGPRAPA

[10] = target: Cyclooxygenase 1 (Homo sapiens, UniProt P23219); assay: Lead profiling screen, enzyme assay; format: biochemical
Cyclooxygenase 1, sequence (P23219 24-599, species assumed): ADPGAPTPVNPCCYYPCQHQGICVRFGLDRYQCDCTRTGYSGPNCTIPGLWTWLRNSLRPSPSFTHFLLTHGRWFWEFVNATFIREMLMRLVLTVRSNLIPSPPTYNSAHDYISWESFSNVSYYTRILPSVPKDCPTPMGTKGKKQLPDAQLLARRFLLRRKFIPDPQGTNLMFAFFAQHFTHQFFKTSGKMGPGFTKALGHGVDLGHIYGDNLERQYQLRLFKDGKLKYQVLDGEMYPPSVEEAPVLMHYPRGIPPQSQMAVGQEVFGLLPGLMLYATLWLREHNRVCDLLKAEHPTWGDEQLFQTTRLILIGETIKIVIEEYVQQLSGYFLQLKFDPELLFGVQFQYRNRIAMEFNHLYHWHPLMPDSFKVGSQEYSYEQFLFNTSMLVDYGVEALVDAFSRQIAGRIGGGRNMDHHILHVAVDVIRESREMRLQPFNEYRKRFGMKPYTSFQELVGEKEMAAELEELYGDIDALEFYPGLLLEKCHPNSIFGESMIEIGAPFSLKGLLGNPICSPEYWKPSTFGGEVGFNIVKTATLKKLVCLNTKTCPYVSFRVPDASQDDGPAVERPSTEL

[11] = target: ctRAGE; settings: read-out: ctRAGE Kd; cited from earlier work
[12] = target: EP2 (Homo sapiens, UniProt P43116); assay: Lead profiling screen; format: binding
EP2, sequence (P43116 whole entry): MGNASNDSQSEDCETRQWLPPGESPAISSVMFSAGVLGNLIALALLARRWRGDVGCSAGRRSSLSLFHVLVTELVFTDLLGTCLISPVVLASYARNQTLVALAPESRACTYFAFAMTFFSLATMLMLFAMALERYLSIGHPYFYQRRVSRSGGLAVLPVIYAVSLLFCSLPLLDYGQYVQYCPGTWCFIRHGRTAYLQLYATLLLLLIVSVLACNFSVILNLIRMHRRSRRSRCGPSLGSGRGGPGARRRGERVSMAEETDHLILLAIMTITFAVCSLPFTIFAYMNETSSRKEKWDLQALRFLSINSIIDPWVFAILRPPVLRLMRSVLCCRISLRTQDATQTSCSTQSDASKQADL

[13] = target: Serotonin (5-Hydroxytryptamine) 5-HT2A (Homo sapiens, UniProt P28223); assay: Lead profiling screen; format: binding
Serotonin (5-Hydroxytryptamine) 5-HT2A, sequence (P28223 whole entry): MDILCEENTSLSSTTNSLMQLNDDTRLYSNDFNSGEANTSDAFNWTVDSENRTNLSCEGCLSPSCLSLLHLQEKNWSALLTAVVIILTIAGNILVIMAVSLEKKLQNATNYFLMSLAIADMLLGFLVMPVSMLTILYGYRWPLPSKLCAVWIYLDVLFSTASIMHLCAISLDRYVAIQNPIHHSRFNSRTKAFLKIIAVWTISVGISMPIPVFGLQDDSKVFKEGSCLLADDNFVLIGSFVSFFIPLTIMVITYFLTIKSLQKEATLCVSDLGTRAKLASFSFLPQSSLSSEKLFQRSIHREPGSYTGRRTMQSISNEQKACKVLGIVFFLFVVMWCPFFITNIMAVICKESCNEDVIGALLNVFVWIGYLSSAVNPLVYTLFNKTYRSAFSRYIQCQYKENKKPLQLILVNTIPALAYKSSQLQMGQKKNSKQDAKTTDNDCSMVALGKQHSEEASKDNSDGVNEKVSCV

[14] = target: Norephinephrine transporter (Homo sapiens, UniProt P23975); assay: Lead profiling screen; format: binding
Norephinephrine transporter, sequence (P23975 whole entry): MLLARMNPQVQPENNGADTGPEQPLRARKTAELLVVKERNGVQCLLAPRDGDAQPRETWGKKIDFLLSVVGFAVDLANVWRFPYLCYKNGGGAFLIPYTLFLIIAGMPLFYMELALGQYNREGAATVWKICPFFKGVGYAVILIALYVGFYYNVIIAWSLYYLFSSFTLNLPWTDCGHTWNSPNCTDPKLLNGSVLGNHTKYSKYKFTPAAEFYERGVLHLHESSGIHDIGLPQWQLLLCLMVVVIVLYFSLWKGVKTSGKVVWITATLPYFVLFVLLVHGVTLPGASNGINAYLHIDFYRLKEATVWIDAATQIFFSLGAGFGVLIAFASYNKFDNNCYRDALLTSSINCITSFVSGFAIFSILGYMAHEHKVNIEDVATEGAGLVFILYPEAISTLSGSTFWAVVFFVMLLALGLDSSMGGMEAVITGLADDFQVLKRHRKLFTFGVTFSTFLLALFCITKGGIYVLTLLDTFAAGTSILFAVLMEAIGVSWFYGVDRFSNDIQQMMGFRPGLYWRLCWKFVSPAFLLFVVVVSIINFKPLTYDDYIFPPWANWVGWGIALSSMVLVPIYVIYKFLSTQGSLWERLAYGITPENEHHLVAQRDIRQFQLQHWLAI

[15] = [18F]RAGER autoradiography, competitive binding with melatonin; parameters: species or system human; settings: 10 μM melatonin; control, AD and DLB + AD brain tissue sections
[16] = Rodent [18F]RAGER PET, melatonin blocking; settings: 5 μg/kg i.v. 10 min prior to [18F]RAGER, healthy rodents
[17] = Nonhuman primate [18F]RAGER PET, melatonin blocking and displacement; settings: NHP
[18] = target: T5, Androgen (Testosterone) (Homo sapiens, UniProt P10275); assay: Lead profiling screen; format: binding
T5 sequence (P10275 1-920): T3 sequence (P10275 1-920)

[19] = target: Transporter, Dopamine (DAT) (Homo sapiens, UniProt Q01959); assay: Lead profiling screen; format: binding
Transporter, Dopamine (DAT), sequence (Q01959 whole entry): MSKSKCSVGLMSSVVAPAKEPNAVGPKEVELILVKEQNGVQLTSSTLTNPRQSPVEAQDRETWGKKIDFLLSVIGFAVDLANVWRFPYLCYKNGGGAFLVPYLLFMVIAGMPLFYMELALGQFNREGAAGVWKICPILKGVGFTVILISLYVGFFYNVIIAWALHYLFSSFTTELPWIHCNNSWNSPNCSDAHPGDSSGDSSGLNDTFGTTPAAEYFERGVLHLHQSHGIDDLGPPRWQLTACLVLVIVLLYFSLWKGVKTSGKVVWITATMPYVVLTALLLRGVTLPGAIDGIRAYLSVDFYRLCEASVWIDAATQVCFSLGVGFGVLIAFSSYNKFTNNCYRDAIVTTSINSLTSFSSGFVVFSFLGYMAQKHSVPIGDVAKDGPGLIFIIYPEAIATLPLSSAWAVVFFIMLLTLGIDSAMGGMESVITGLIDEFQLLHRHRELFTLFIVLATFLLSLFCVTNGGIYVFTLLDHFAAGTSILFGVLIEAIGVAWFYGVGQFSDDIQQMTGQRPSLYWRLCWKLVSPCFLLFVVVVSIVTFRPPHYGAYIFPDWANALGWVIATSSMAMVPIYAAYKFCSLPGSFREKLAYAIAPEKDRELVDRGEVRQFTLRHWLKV

[20] = target: Peripheral benzodiazepine receptor (Rattus norvegicus, UniProt P16257); assay: Lead profiling screen, RAGER; format: binding
Peripheral benzodiazepine receptor, sequence (P16257 whole entry): as the sequence (P16257 whole entry) above

[21] = cited from earlier work

Melatonin MT1, sequence (P48039 whole entry): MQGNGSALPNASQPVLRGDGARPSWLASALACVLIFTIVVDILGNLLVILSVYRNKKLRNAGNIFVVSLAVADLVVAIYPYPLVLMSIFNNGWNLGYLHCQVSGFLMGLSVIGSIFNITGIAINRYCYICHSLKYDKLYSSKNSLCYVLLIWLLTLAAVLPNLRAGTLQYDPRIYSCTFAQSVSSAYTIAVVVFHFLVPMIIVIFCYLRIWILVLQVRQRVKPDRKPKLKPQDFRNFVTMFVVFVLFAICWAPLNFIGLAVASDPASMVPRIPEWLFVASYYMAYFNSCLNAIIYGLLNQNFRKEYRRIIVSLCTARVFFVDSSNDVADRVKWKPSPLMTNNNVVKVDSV

Row | Ki [1] | inhibition at 10 µM [1] | inhibition at 10 µM [2] | inhibition at 10 µM [4] | Ki [5] | inhibition at 10 µM [5] | Ki [2] | IC50 [4] | Ki [4] | IC50 [8] | Ki [8] | inhibition at 10 µM [8] | IC50 [9] | Ki [9] | inhibition at 10 µM [9] | SMILES | Kd [11] | further results
1 | 1200 nM | 54% | 64% | 85% | 4400 nM | 54% | – | – | – | – | – | – | – | – | – | O=C(c1ccc(Cl)cc1)N(Cc1ccccc1)C1CCCCC1 [FPS-ZM1, N-Benzyl-N-cyclohexyl-4-chlorobenzamide] | – | IC50 [1]: 1500 nM; % Inhibition [3]: 59%; IC50 [5]: 7000 nM; inhibition at 10 µM [6]: 88%; % Inhibition [7]: 62%
2 | – | – | 75% | 81% | – | – | 830 nM | 480 nM | 440 nM | 260 nM | 130 nM | 95% | 1400 nM | 1000 nM | 85% | COc1cc(NC(C)=O)c(Cl)cc1C(=O)Nc1nccs1 [InRAGER2, 4-Acetamido-5-chloro-2-methoxy-N-(thiazol-2-yl)benzamide] | 0.3 ± 0.05 nM | IC50 [2]: 1400 nM; IC50 [10]: 12000 nM
3 | – | – | 99% | – | – | – | 24 nM | 480 nM | 12000 nM | 260 nM | 550 nM | 97% | 1400 nM | 8900 nM | 78% | Oc1cccc(Nc2nc(-c3ccc(F)cc3F)cs2)c1 [InRAGER, 3-((4-(2,4-difluorophenyl)thiazol-2-yl)amino)phenol] | 1 ± 0.5 nM | Ki [12]: 2300 nM; inhibition at 10 µM ([12]; 10 μM, EP2, Human): 74%; Ki [13]: 7800 nM; Ki [14]: 1500 nM; inhibition at 10 µM ([14]; 10 μM, Norephinephrine transporter, Human): 95%
4 | – | – | – | – | – | – | – | – | – | – | – | – | – | – | – | COc1ccc2[nH]cc(CCNC(C)=O)c2c1 [Melatonin] | – | displacement of [18F]RAGER [15]: not able to displace; effect on [18F]RAGER uptake or washout compared to baseline [16]: no effect; change in radioligand uptake, maximal SUV, TAC shape vs baseline (blocking) ([17]; 5 μg/kg i.v. 10 min prior to [18F]RAGER): did not reveal any decrease; maximal SUV or TAC shape vs baseline (displacement) ([17]; 10 μg/kg i.v. 40 min into the 90 min scan): did not differ significantly
5 | 93 nM | 96% | – | – | 700 nM | 82% | – | – | – | – | – | – | – | – | – | O=C(c1ccc(F)cc1)N(Cc1ccccc1)C1CCCCC1 [RAGER, N-Benzyl-N-cyclohexyl-4-fluorobenzamide] | – | Ki [18]: 2600 nM; inhibition at 10 µM [18]: 59%; Ki [19]: 6800 nM; inhibition at 10 µM [19]: 52%; Ki [20]: 8500 nM; inhibition at 10 µM ([20]; read-out: %Inhibition at 10 μM): 64%; experimental log P [21]: 3.5
